Patent US10538555B2, “Macrocyclic inhibitors of the PD-1/PD-L1 and CD80(B7-1)/PD-L1 protein/protein interactions” (BRISTOL-MYERS SQUIBB COMPANY, priority 2014, dated 2020)
Where a SMILES comes first, the peptide text is derived from it. Bridges are numbered along the chain shown (N, C = ends). [ ]: non-standard residue; d: D form. Phe(3,4-F2) = N[C@@H](Cc1ccc(F)c(F)c1)C(=O)O; dPro(4S-Me) = C[C@@H]1CN[C@@H](C(=O)O)C1; Phe(4-F) = N[C@@H](Cc1ccc(F)cc1)C(=O)O; NMeF = CN[C@@H](Cc1ccccc1)C(=O)O; dNMeF = CN[C@H](Cc1ccccc1)C(=O)O; dHyp = O=C(O)[C@H]1C[C@H](O)CN1; NMehSer = CN[C@@H](CCO)C(=O)O; NMeNle = CCCC[C@H](NC)C(=O)O; dPip = O=C(O)[C@H]1CCCCN1; Orn = NCCC[C@H](N)C(=O)O

The compounds below were run against T1, Human PD-L1/PD-1 (Homo sapiens, UniProt Q9NZQ7) (assay: HTRF Human PD-L1/PD-1 binding assay (PD-1-Ig/PD-L1-His)). Details: PD-L1-His 10 nM, PD-1-Ig 20 nM; class symbol; read-out: HTRF Human PD-L1/PD-1 Binding Assay IC50 Range.
T1 construct: TVMV protease cleavage site (C); made in house; host or cells: HEK293T cells
T1 sequence (Q9NZQ7 with tags, fused parts or gaps): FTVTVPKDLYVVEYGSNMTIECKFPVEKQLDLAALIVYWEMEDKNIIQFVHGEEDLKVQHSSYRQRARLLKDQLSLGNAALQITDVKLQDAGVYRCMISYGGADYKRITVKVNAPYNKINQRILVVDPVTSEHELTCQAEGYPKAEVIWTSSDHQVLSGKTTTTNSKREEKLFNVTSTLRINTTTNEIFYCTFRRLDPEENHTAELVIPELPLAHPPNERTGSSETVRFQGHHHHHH
Summary of the method: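 Compound preincubated 15 min with PD-L1-His (10 nM final), then PD-1-Ig (20 nM final) added for 15 min in dPBS with 0.1% BSA and 0.05% Tween-20. Detection by Eu-cryptate anti-Ig (1 nM) and APC anti-His (20 nM) after 30 min; 665/620 nm HTRF ratio. Proteins expressed in HEK293T.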

| IC50 [nM] | Compound |
| --- | --- |
| 100 to 990 | CCCC[C@H]1C(=O)N2CCC[C@@H]2C(=O)N[C@@H](CC(=O)O)C(=O)N[C@@H](C(C)C)C(=O)N(C)[C@@H](CCOC)C(=O)N[C@@H](Cc2ccc(O)cc2)C(=O)N2CCC[C@@H]2C(=O)N[C@@H](Cc2c[nH]c3ccccc23)C(=O)N[C@@H](Cc2ccc(O)cc2)C(=O)N[C@@H](CCCN)C(=O)N[C@H](C(=O)NCC(N)=O)CSCC(=O)N[C@@H](Cc2ccc(F)cc2)C(=O)N(C)[C@@H](Cc2ccccc2)C(=O)N1C [Example 9221] ({CH2CO}-[Phe(4-F)][NMeF][NMeNle][dP]DV[NMehSer](Me)Y[dP]WY[Orn]CG-NH2; thioether N-13) |
| 100 to 990 | CCCC[C@H]1C(=O)N2CCC[C@@H]2C(=O)N[C@@H](CC(=O)O)C(=O)N[C@@H](C(C)C)C(=O)N(C)[C@@H](CCOC)C(=O)N[C@@H](CCC(N)=O)C(=O)N2CCC[C@@H]2C(=O)N[C@@H](Cc2c[nH]c3ccccc23)C(=O)N[C@@H](Cc2ccc(O)cc2)C(=O)N[C@@H](CC(C)C)C(=O)N[C@H](C(=O)NCC(N)=O)CSCC(=O)N[C@@H](Cc2ccc(F)cc2)C(=O)N(C)[C@@H](Cc2ccccc2)C(=O)N1C [Example 9223] ({CH2CO}-[Phe(4-F)][NMeF][NMeNle][dP]DV[NMehSer](Me)Q[dP]WYLCG-NH2; thioether N-13) |
| 100 to 990 | CCCC[C@H]1C(=O)N2CCC[C@@H]2C(=O)N[C@@H](CC(=O)O)C(=O)N[C@@H](C(C)C)C(=O)N(C)[C@@H](CCOC)C(=O)N[C@@H](CCC(N)=O)C(=O)N2CCCC[C@@H]2C(=O)N[C@@H](Cc2c[nH]c3ccccc23)C(=O)N[C@@H](Cc2ccc(O)cc2)C(=O)N[C@@H](CC(C)C)C(=O)N[C@H](C(=O)NCC(N)=O)CSCC(=O)N[C@@H](Cc2ccc(F)cc2)C(=O)N(C)[C@@H](Cc2ccccc2)C(=O)N1C [Example 9224] ({CH2CO}-[Phe(4-F)][NMeF][NMeNle][dP]DV[NMehSer](Me)Q[dPip]WYLCG-NH2; thioether N-13) |
| 1 to 9.9 | CCCC[C@H]1C(=O)N2C[C@@H](O)C[C@@H]2C(=O)N[C@@H](CC(=O)O)C(=O)N[C@@H](C(C)C)C(=O)N(C)[C@@H](Cc2ccccc2)C(=O)N[C@@H](Cc2ccc(OC)cc2)C(=O)N2C[C@@H](O)C[C@@H]2C(=O)N[C@@H](Cc2c[nH]c3ccccc23)C(=O)N[C@@H](Cc2ccc(O)cc2)C(=O)N[C@@H](CC(C)C)C(=O)N[C@H](C(=O)NCC(N)=O)CSCC(=O)N[C@@H](Cc2ccc(F)c(F)c2)C(=O)N(C)[C@@H](Cc2ccccc2)C(=O)N1C [Example 9225] ({CH2CO}-[Phe(3,4-F2)][NMeF][NMeNle][dHyp]DV[NMeF]Y(Me)[dHyp]WYLCG-NH2; thioether N-13) |
| 10 to 99.9 | CCCC[C@H]1C(=O)N2C[C@@H](O)C[C@@H]2C(=O)N[C@@H](CC(=O)O)C(=O)N[C@@H](C(C)C)C(=O)N(C)[C@H](Cc2ccccc2)C(=O)N[C@@H](Cc2ccc(OC)cc2)C(=O)N2C[C@@H](O)C[C@@H]2C(=O)N[C@@H](Cc2c[nH]c3ccccc23)C(=O)N[C@@H](Cc2ccc(O)cc2)C(=O)N[C@@H](CC(C)C)C(=O)N[C@H](C(=O)NCC(N)=O)CSCC(=O)N[C@@H](Cc2ccc(F)c(F)c2)C(=O)N(C)[C@@H](Cc2ccccc2)C(=O)N1C [Example 9226] ({CH2CO}-[Phe(3,4-F2)][NMeF][NMeNle][dHyp]DV[dNMeF]Y(Me)[dHyp]WYLCG-NH2; thioether N-13) |
| 1 to 9.9 | CCCC[C@H]1C(=O)N2C[C@@H](O)C[C@@H]2C(=O)N[C@@H](CC(=O)O)C(=O)N[C@@H](C(C)C)C(=O)N(C)[C@@H](Cc2ccccc2)C(=O)N[C@@H](Cc2ccc(O)cc2)C(=O)N2C[C@@H](O)C[C@@H]2C(=O)N[C@@H](Cc2c[nH]c3ccccc23)C(=O)N[C@@H](Cc2ccc(O)cc2)C(=O)N[C@@H](CC(C)C)C(=O)N[C@H](C(=O)NCC(N)=O)CSCC(=O)N[C@@H](Cc2ccc(F)c(F)c2)C(=O)N(C)[C@@H](Cc2ccccc2)C(=O)N1C [Example 9227] ({CH2CO}-[Phe(3,4-F2)][NMeF][NMeNle][dHyp]DV[NMeF]Y[dHyp]WYLCG-NH2; thioether N-13) |
| 10 to 99.9 | CCCC[C@H]1C(=O)N2C[C@@H](O)C[C@@H]2C(=O)N[C@@H](CC(=O)O)C(=O)N[C@@H](C(C)C)C(=O)N(C)[C@H](Cc2ccccc2)C(=O)N[C@@H](Cc2ccc(O)cc2)C(=O)N2C[C@@H](O)C[C@@H]2C(=O)N[C@@H](Cc2c[nH]c3ccccc23)C(=O)N[C@@H](Cc2ccc(O)cc2)C(=O)N[C@@H](CC(C)C)C(=O)N[C@H](C(=O)NCC(N)=O)CSCC(=O)N[C@@H](Cc2ccc(F)c(F)c2)C(=O)N(C)[C@@H](Cc2ccccc2)C(=O)N1C [Example 9228] ({CH2CO}-[Phe(3,4-F2)][NMeF][NMeNle][dHyp]DV[dNMeF]Y[dHyp]WYLCG-NH2; thioether N-13) |
| 1 to 9.9 | CCCC[C@H]1C(=O)N2C[C@@H](C)C[C@@H]2C(=O)N[C@@H](CC(=O)O)C(=O)N[C@@H](C(C)C)C(=O)N(C)[C@@H](Cc2ccccc2)C(=O)N[C@@H](Cc2ccc(OC)cc2)C(=O)N2C[C@@H](O)C[C@@H]2C(=O)N[C@@H](Cc2c[nH]c3ccccc23)C(=O)N[C@@H](Cc2ccc(O)cc2)C(=O)N[C@@H](CCCN)C(=O)N[C@H](C(=O)NCC(N)=O)CSCC(=O)N[C@@H](Cc2ccc(F)c(F)c2)C(=O)N(C)[C@@H](Cc2ccccc2)C(=O)N1C [Example 9229] ({CH2CO}-[Phe(3,4-F2)][NMeF][NMeNle][dPro(4S-Me)]DV[NMeF]Y(Me)[dHyp]WY[Orn]CG-NH2; thioether N-13) |
| 10 to 99.9 | CCCC[C@H]1C(=O)N2C[C@@H](C)C[C@@H]2C(=O)N[C@@H](CC(=O)O)C(=O)N[C@@H](C(C)C)C(=O)N(C)[C@H](Cc2ccccc2)C(=O)N[C@@H](Cc2ccc(OC)cc2)C(=O)N2C[C@@H](O)C[C@@H]2C(=O)N[C@@H](Cc2c[nH]c3ccccc23)C(=O)N[C@@H](Cc2ccc(O)cc2)C(=O)N[C@@H](CCCN)C(=O)N[C@H](C(=O)NCC(N)=O)CSCC(=O)N[C@@H](Cc2ccc(F)c(F)c2)C(=O)N(C)[C@@H](Cc2ccccc2)C(=O)N1C [Example 9230] ({CH2CO}-[Phe(3,4-F2)][NMeF][NMeNle][dPro(4S-Me)]DV[dNMeF]Y(Me)[dHyp]WY[Orn]CG-NH2; thioether N-13) |
| 1 to 9.9 | CCCC[C@H]1C(=O)N2C[C@@H](O)C[C@@H]2C(=O)N[C@@H](CC(=O)O)C(=O)N[C@@H](C(C)C)C(=O)N(C)[C@@H](Cc2ccccc2)C(=O)N[C@@H](Cc2ccc(O)cc2)C(=O)N2C[C@@H](O)C[C@@H]2C(=O)N[C@@H](Cc2c[nH]c3ccccc23)C(=O)N[C@@H](Cc2ccc(O)cc2)C(=O)N[C@@H](CCCN)C(=O)N[C@H](C(=O)NCC(N)=O)CSCC(=O)N[C@@H](Cc2ccc(F)c(F)c2)C(=O)N(C)[C@@H](Cc2ccccc2)C(=O)N1C [Example 9231] ({CH2CO}-[Phe(3,4-F2)][NMeF][NMeNle][dHyp]DV[NMeF]Y[dHyp]WY[Orn]CG-NH2; thioether N-13) |
| 1 to 9.9 | CCCC[C@H]1C(=O)N2C[C@@H](O)C[C@@H]2C(=O)N[C@@H](CC(=O)O)C(=O)N[C@@H](C(C)C)C(=O)N(C)[C@H](Cc2ccccc2)C(=O)N[C@@H](Cc2ccc(O)cc2)C(=O)N2C[C@@H](O)C[C@@H]2C(=O)N[C@@H](Cc2c[nH]c3ccccc23)C(=O)N[C@@H](Cc2ccc(O)cc2)C(=O)N[C@@H](CCCN)C(=O)N[C@H](C(=O)NCC(N)=O)CSCC(=O)N[C@@H](Cc2ccc(F)c(F)c2)C(=O)N(C)[C@@H](Cc2ccccc2)C(=O)N1C [Example 9232] ({CH2CO}-[Phe(3,4-F2)][NMeF][NMeNle][dHyp]DV[dNMeF]Y[dHyp]WY[Orn]CG-NH2; thioether N-13) |
| 1 to 9.9 | COCC[C@H]1C(=O)N2C[C@@H](O)C[C@@H]2C(=O)N[C@@H](CC(=O)O)C(=O)N[C@@H](C(C)C)C(=O)N(C)[C@@H](Cc2ccccc2)C(=O)N[C@@H](Cc2ccc(O)cc2)C(=O)N2C[C@@H](O)C[C@@H]2C(=O)N[C@@H](Cc2c[nH]c3ccccc23)C(=O)N[C@@H](Cc2ccc(O)cc2)C(=O)N[C@@H](CC(C)C)C(=O)N[C@H](C(=O)NCC(N)=O)CSCC(=O)N[C@@H](Cc2ccc(F)c(F)c2)C(=O)N(C)[C@@H](Cc2ccccc2)C(=O)N1C [Example 9233] ({CH2CO}-[Phe(3,4-F2)][NMeF][NMehSer](Me)[dHyp]DV[NMeF]Y[dHyp]WYLCG-NH2; thioether N-13) |
| 1 to 9.9 | COCC[C@H]1C(=O)N2C[C@@H](O)C[C@@H]2C(=O)N[C@@H](CC(=O)O)C(=O)N[C@@H](C(C)C)C(=O)N(C)[C@H](Cc2ccccc2)C(=O)N[C@@H](Cc2ccc(O)cc2)C(=O)N2C[C@@H](O)C[C@@H]2C(=O)N[C@@H](Cc2c[nH]c3ccccc23)C(=O)N[C@@H](Cc2ccc(O)cc2)C(=O)N[C@@H](CC(C)C)C(=O)N[C@H](C(=O)NCC(N)=O)CSCC(=O)N[C@@H](Cc2ccc(F)c(F)c2)C(=O)N(C)[C@@H](Cc2ccccc2)C(=O)N1C [Example 9234] ({CH2CO}-[Phe(3,4-F2)][NMeF][NMehSer](Me)[dHyp]DV[dNMeF]Y[dHyp]WYLCG-NH2; thioether N-13) |

Same assay, conditions: PD-L1-His 10 nM, PD-1-Ig 20 nM; read-out: HTRF Human PD-L1/PD-1 Binding Assay IC50

| IC50 [nM] | Compound |
| --- | --- |
| 144 | CCCC[C@H]1C(=O)N2CCC[C@@H]2C(=O)N[C@@H](CC(=O)O)C(=O)N[C@@H](C(C)C)C(=O)N(C)[C@@H](CCOC)C(=O)N[C@@H](Cc2ccc(O)cc2)C(=O)N2CCCC[C@@H]2C(=O)N[C@@H](Cc2c[nH]c3ccccc23)C(=O)N[C@@H](Cc2ccc(O)cc2)C(=O)N[C@@H](CCCN)C(=O)N[C@H](C(=O)NCC(N)=O)CSCC(=O)N[C@@H](Cc2ccc(F)cc2)C(=O)N(C)[C@@H](Cc2ccccc2)C(=O)N1C [Example 9222] ({CH2CO}-[Phe(4-F)][NMeF][NMeNle][dP]DV[NMehSer](Me)Y[dPip]WY[Orn]CG-NH2; thioether N-13) |
